Results published in PMC8536644, “Enigmatic mechanism of the N-vinylpyrrolidone hepatocarcinogenicity in the rat” (Archives of Toxicology, 2021).
Where “and” joins values, the source holds several entries; their conditions need not be identical. Equal values may be shown once.

Tests used:
[1] = test system: CYP4A; assay: Lauric acid hydroxylase assay, 12-hydroxylation (PPARα marker); format: in vivo, rat
Protocol: ^14C-labelled lauric acid (55 mCi/mmol) dissolved in ethanol (0.1 mCi/mL; total volume 2.5 mL) was purchased from American Radiolabeled Chemicals. 10 µL of this solution were diluted with methanol to 2 mL. The purity was checked by radio-HPLC. For the enzyme activity determinations 1.21 mL of this solution were treated in the thermomixer at 40 °C and 300 rpm until the ethanol was completely evaporated. The residue was taken up in 550 µL DMSO and checked on the incubation days by radio-HPLC and by liquid scintillation counting (LSC). To this end the just-mentioned solution in DMSO (nominally 8.14 MBq/mL) was 100-fold diluted with methanol, 50 µL of the resultant solution used for the HPLC analysis, 100 µL for the LSC analysis (488,400 dpm/100 µL).
For the determination of the lauric acid hydroxylase activity the liver microsomal fractions (prepared as described in the preceding chapter “Aryl hydrocarbon receptor”) derived from the NVP-treated (and untreated control) male rats were adjusted with TrisHCl pH 7.5–20 mg protein/mL. Obtained samples were measured in duplicates. Controls were heat-denatured samples (15 min at 99 °C in the thermomixer at 450 rpm), zero-time samples (reaction stopped immediately after adding substrate) and buffer controls (TrisHCl pH 7.5, no microsomal protein). 155 µL master mix (100 mM TrisHCl pH 7.5, 10 mM MgCl2, 2 mM 5’AMP-Na2, 5 mM G-6-P, 10 U G-6-P-DH) and 30 µL sample were preincubated for 3 min at 37 °C. Subsequently 10 µL of a 2-mM NADPH solution and 5 µL ^14C-lauric acid (8.14 MBq/mL) were added (lauric acid final concentration in the incubation 100 µM). The reaction was run for 20 min at 37 °C in the thermomixer (450 rpm) and stopped by the addition of 200 µL ice-cold acetone. […]

[2] = test system: CYP1A; assay: EROD inhibition control in Aroclor 1254-induced rat liver microsomes; format: biochemical; conditions: for EROD enzyme activity: 0 µM control 821.5 ± 54.9
Protocol: For determination of the enzyme activities in triplicates, 85 µL master mix (100 mM TrisHCl pH 7.5, 2 mM 5’AMP, 5 mM G-6-P, 10 U G-6-P-DH, 10 mM Dicumarol, 10 mM MgCl2, either 2 µM EROD or 10 µM PROD or 5 µM BROD) was added to 10 µL microsomal fraction (1 mg protein/mL). The reaction was started by the addition of 5 µL 2 mM NADPH (dissolved in 100 mM TrisHCl pH 7.5) followed by incubation at 37 °C for 16 min. The activity was determined by measuring the increase of the fluorescence (excitation at 550 nm, emission at 585 nm) due to resorufin formation compared with resorufin standards, which had been prepared by dissolving tenfold concentrated solutions in DMSO, which were then diluted tenfold in 100 mM TrisHCl pH 7.5.
As a method control the described AROD assay was performed with microsomal fractions derived from liver and lung of male Wistar rats which had been treated i.p. for 5 days with aroclor 1254 (500 mg/kg bw). These control assays were performed in presence of 1 μM, 10 μM or 100 μM NVP, respectively, in order to check for potential interactions of NVP with the substrate turnover in the AROD assay.

[3] = test system: rat liver; assay: Liver histology, hematoxylin–eosin staining; format: in vivo
Protocol: HE staining was performed essentially according to Romeis ([2010]), specifically under the following conditions:
Parts of the frozen (− 80 °C) livers from rats treated with 0, 5, 10 or 20 ppm NVP were thawed in formalin (specifically 4% formaldehyde in sodium phosphate buffer pH 7) and left therein for fixation at least 7 days. Subsequently the livers were cut into approximately 4 mm-thick slices, which were dehydrated in increasingly concentrated ethanol (70–100%), washed in xylene and then transferred into fluid paraffin. The livers were put into kassettes with the parts which were foreseen for cutting toward the bottom, the kassettes filled with paraplast (melting point 58–62 °C) and the material left for hardening. From the embedded livers 3- to 6 µm-thick slices were cut by a rotation microtome, then stretched (in a water bath at 45 °C), transferred to a slide and dried overnight at 50 °C. Subsequently the slices were stained with HE and covered with Pertex. The slices were then microscopically evaluated. Structural changes were classified into severity grades 0, 1, 2 and 3.

[4] = lauric acid 12-hydroxylation, liver microsomes, 20 ppm NVP, individual animals 19-24

## C=CN1CCCC1=O [NVP, N-vinylpyrrolidone]
[1]; 20 ppm, not statistically significant
  Increase of lauric acid 12-hydroxylation vs vehicle control: 1.3 fold
[1]; [4]
  ω-hydroxylase (CYP4A-activity), enzyme activity individual: 20,495 peak surface/min/mg protein and 20,593 peak surface/min/mg protein and 10,543 peak surface/min/mg protein and 14,545 peak surface/min/mg protein and 15,406 peak surface/min/mg protein and 6779 peak surface/min/mg protein
  ω-hydroxylase (CYP4A-activity), peak surface: 27,314 and 28,341 and 15,814 and 21,818 and 23,109 and 11,088
[2]; 1 µM NVP
  EROD enzyme activity: 859.9 ± 14.1 pmol/min/mg protein
[2]; 10 µM NVP
  EROD enzyme activity: 827.9 ± 13.6 pmol/min/mg protein
[2]; 100 µM NVP
  EROD enzyme activity: 858.9 ± 33.9 pmol/min/mg protein
[2]; 1, 10 or 100 µM NVP
  Inhibition of EROD activity: does not lead to inhibition
[3]; 5 ppm, three males examined
  Males without centrilobular hepatocellular fatty change: two of three
[3]; 10 ppm, males
  Animals with low-grade (grade 1) centrilobular hepatocellular fatty change: two of three
[3]; 20 ppm, females
  Animals with grade 1 centrilobular hepatocellular fatty change: one of three
  Animals with grade 2 centrilobular hepatocellular fatty change: one
[3]; 20 ppm, males
  Animals with high-grade (grade 3) centrilobular hepatocellular fatty change: two of three
